Read-outs that look alike come from different tables or passages of the source.
Key:
motor neurons [1] = details: earlier use of the culture system as preclinical screen; cited from earlier work
[2] = system: glutathione transferase (GST)
Experimental: (§1) Mouse spinal cord cultures were prepared and cultured according to Rothstein, J D and Kuncl, R W. J. Neural Chem. 65:643-651 (1995). Cultures were treated with sulforaphane for 24 hours at concentrations of 0,1 μm, 5 μm, 10 μm and 20 μm.
(§2) Mouse spinal cord cultures were prepared and cultured as above. Cultures were treated with sulforaphane for 2 weeks, twice a week, at concentrations of 1 μm, 5 μm and 10 μm.

quinone reductase (QR) = system: quinone reductase (QR)
Experimental: as §1, §2

glutathione (GSH) = details: 1, 5 or 10 μM for 12 h, 24 h or 48 h; no THA; FIG. 2
Experimental: Rat spinal cord slices were similarly prepared and cultured as in the above example but without THA treatment. The tissues were cultured for one or two weeks and then incubated with 1 μM, 5, μM, or 10 μM, of sulphoraphane for 12 h, 24 h or 48 h. The tissue slices were then harvested and sonicated and assayed for total GSH content (Richie J P et al., Clinical Chemistry, 42, 64-70, 1996, the contents of which are incorporated herein by reference).

brain glutathione = test: Blood-brain barrier permeability / whole brain GSH levels after daily oral gavage; details: one week, whole brain homogenate, FIG. 5
motor neurons [3] = details: spinal cord explant; sulforaphane 0.5, 5, 10 μM for 3 weeks; FIG. 1
Experimental: The general experimental procedure of THA-induced cytotoxicity was previously described (Ho T et al., Experimental Neurology, 161, 664-675, 2000), the contents of which are incorporated herein by reference. Rodent spinal cord tissue slices were treated with THA and/or sulforaphane. Sulforaphane was administered at concentrations at 0, 0.5 μM, 5 μM and 10 μM for 3 weeks, changing medium every three days. At the end of the experiment, each tissue slice was fixed and stained, and remaining neurons were counted.

SOD-G93 mice = details: oral daily gavage from weaning; expected result
Excerpt: Method: Transgenic animals will be divided into four groups of 10 animals per group. […] The third group will receive N-acetylcysteine alone, and a fourth group will receive vehicle control (CMC). […] Animals will begin treatment at weaning, and continue oral daily gavage of the drugs. Onset of disease will be monitored by alteration on rotorod performance. Animals will be studied twice weekly starting at 1 month of age. A surrogate survival measure will be determined by the ability of the animals to right themselves after being placed on the cage on their backs. If they are unable to right themselves after 30 seconds, they will be considered dead. The survival and rotorod performance of each group of the animal will be compared.

[4] = treated 2 weeks, twice a week, at 1, 5, 10 μm, FIG. 4
[5] = treated 24 hours at 1, 5, 10, 20 μm, FIG. 3

NCC1(CC(=O)O)CCCCC1 [gabapentin, reference compound]
Protection against chronic motor neuron degeneration (motor neurons [1]): protective

Nc1nc2ccc(OC(F)(F)F)cc2s1 [riluzole, reference compound]
Protection against chronic motor neuron degeneration (motor neurons [1]): protective

C[S+]([O-])CCCCN=C=S (stereo not shown) [sulforaphane]
Induction of GST activity [2, 4]: induced
Induction of GST activity [2, 5]: induced
Induction of QR activity (quinone reductase (QR); [4]): induced
Induction of QR activity (quinone reductase (QR); [5]): induced
Rise of GSH level in treated spinal cord tissue (glutathione (GSH)): ≤ 160%
Brain GSH levels (brain glutathione): elevate GSH levels in the brain
Prevention of THA-induced motor neuron death (motor neurons [3]): significantly prevented THA-induced motor neuron death
Survival of the animals compared to control (SOD-G93 mice): will improve the survival

insulin growth factor (IGF-1): insulin growth factor, potential neuroprotective agent
Protection against chronic motor neuron degeneration (motor neurons [1]): protective

B1: ciliary neurotrophic factor (CNTF): ciliary neurotrophic factor (protein, UniProt P26441 1-200, looked up)
Ciliary neurotrophic factor: MAFTEHSPLTPHRRDLCSRSIWLARKIRSDLTALTESYVKHQGLNKNINLDSADGMPVASTDQWSELTEAERLQENLQAYRTFHVLLARLLEDQQVHFTPTEGDFHQAIHTLLLQVAAFAYQIEELMILLEYKIPRNEADGMPINVGDGGLFEKKLWGLKVLQELSQWTVRSIHDLRFISSHQTGIPARGSHYIANNKKM
Protection against chronic motor neuron degeneration (motor neurons [1]): failed to protect

B2: brain-derived neurotrophic factor (BDNF): brain-derived neurotrophic factor (protein, UniProt P23560 129-247, looked up)
Neurotrophic factor BDNF: HSDPARRGELSVCDSISEWVTAADKKTAVDMSGGTVTVLEKVPVSKGQLKQYFYETKCNPMGYTKEGCRGIDKRHWNSQCRTTQSYVRALTMDSKKRIGWRFIRIDTSCVCTLTIKRGR
modifications: Neurotrophic factor BDNF
Protection against chronic motor neuron degeneration (motor neurons [1]): failed to protect
